In series [1] the test system is naive CD62LhiCD4+CD25− LN T cells. As to the kind of experiment: Foxp3 induction in newly activated naive CD4 T cells (intracellular staining). The following applies: for effect on Foxp3 expression (in words): newly activated T cells deprived of TCR signals; for percentage of cells expressing Foxp3: added 18 hours after activation with TCR signal deprivation, read within 24-48 hours; for Foxp3 expression in control cultures, TCR signal deprived cultures subtracted: serum free AIM-V medium, without anti TGFβ and SB431542, 24-48 hours / 2 days. In kind it is cell-based, mouse. The protocol: Mouse strains, cell sorting and culture Animal work was carried out according the Animals (Scientific Procedures) Act, UK. Lymph node (LN) cells were stained, analysed and sorted by flow cytometry as described (Cobb et al 2005 J. Exp. Med. 201: 1367-1373). Intracellular staining for Foxp3 protein was done as advised by the manufacturers (eBiosciences.com). The phosphorylation syatus of S6 ribosomal protein was determined using anti pS6 Ser235/236 (Cellsignaling cat.no. 2211, http://www.cellsignal.com) using the eBioscience Foxp3 staining kit and anti rabbit IgG-FITC or IgG-Cy5 (Jackson Immunoresearch). For induction of Foxp3 expression, sorted LN CD4+ CD25− CD62Lhi T cells were cultured at 1-3×10^6/ml with plate bound anti-TCRβ. […] After 18 hours the cells were either left in place for continued TCR stimulation or moved to uncoated wells with the indicated additives. To assess regulatory function, CD4 T cells cultured as indicated were titrated into round bottom wells containing either 1×10^5 CFSE labeled total LN cells or 5×10^4 CFSE labeled CD4^+ CD25^− T cells and 1×10^5 mitomycin-C treated (25 μg/ml, 20 min, 37° C.) T cell depleted splenocytes with the indicated concentrations of anti CD3 (2C11, Pharmingen). CD4 T cell CFSE profiles were recorded between 48 and 72 hours later.
Mice, Cell Sorting and Culture. Animal work was carried out according to the Animals (Scientific Procedures) Act, UK. Lymph node (LN) cells or thymocytes from wild type were stained, analysed and sorted by flow cytometry as described (Thompson et al., 2007 Immunity VoI 26 pp 335-344) from wild type (C57BL/6, BALB/c or C57BL/6×129) mice or from Rag1 deficient H2^b AND TCR transgenic mice. Antigen presenting cells were derived from bone marrow in the presence of GM-CSF and incubated with antigenic peptide. Intracellular staining for Foxp3 protein was done as advised by the manufacturers (eBiosciences.com). The phosphorylation status of S6 ribosomal protein was determined using anti pS6 Ser235/236 (Cell Signaling cat.no. 2211, http://www.cellsignal.com) using the eBioscience Foxp3 staining kit and anti rabbit IgG-FITC or IgG-Cy5 (Jackson ImmunoResearch). […] After 18 hours the cells were either left in place for continued TCR stimulation or moved to uncoated wells with the indicated additives. To assess regulatory function, CD4 T cells cultured as indicated were titrated into round bottom wells containing either 1×10^5 CFSE labeled total LN cells or 5×10^4 CFSE labeled CD4^+CD25^− T cells and 1×10^5 mitomycin-C treated (25 μg/ml, 20 min, 37° C.) T cell depleted splenocytes with the indicated concentrations of anti CD3 (2C11, Pharmingen). CD4 T cell CFSE profiles were recorded between 48 and 72 hours later.

A further series has as its target PI3KC2α (Homo sapiens, UniProt O00443). The following applies: unit inferred; read-out: Specificity for PI3KC2α (IC50 determined in vitro); cited from earlier work.
For another series, the target named is PI4KIIα (Homo sapiens, UniProt Q9BTU6). As to conditions: unit inferred; read-out: Specificity for PI4KIIα (IC50 determined in vitro); cited from earlier work.
Chain of PI4KIIα (Q9BTU6 whole entry): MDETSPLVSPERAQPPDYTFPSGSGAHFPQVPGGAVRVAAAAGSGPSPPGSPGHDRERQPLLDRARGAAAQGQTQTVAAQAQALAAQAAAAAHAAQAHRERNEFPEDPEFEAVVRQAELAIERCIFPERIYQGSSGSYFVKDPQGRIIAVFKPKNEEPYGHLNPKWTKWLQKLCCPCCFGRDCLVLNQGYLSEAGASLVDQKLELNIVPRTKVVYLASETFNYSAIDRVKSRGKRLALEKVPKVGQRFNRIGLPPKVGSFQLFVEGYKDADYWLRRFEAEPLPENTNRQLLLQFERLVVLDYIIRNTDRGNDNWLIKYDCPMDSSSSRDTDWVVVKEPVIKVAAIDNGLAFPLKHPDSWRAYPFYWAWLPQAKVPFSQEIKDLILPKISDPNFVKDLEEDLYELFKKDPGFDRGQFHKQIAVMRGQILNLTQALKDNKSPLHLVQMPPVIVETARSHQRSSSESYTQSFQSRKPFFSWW
The target of the next series is PI4KIIIα (Homo sapiens, UniProt P42356). The following applies: unit inferred; read-out: Specificity for PI4KIIIα (IC50 determined in vitro); cited from earlier work.
A further series concerns the target ATR (Homo sapiens, UniProt Q13535). As to conditions: unit inferred; read-out: Specificity for ATR (IC50 determined in vitro); cited from earlier work.
The target in a further series is ATM (Homo sapiens, UniProt Q13315). The following applies: unit inferred; read-out: Specificity for ATM (IC50 determined in vitro); cited from earlier work.
Series [2] concerns PI4P5KIα. The following applies: second PI4P5KIα line; unit inferred; read-out: Specificity for PI4P5KIα (IC50 determined in vitro); cited from earlier work.
For a further series, the target named is PI3KC2β (Homo sapiens, UniProt O00750). The following applies: unit inferred; read-out: Specificity for PI3KC2β (IC50 determined in vitro); cited from earlier work.
The next series has as its target PI4KIIIβ (Homo sapiens, UniProt Q9UBF8). As to conditions: unit inferred; read-out: Specificity for PI4KIIIβ (IC50 determined in vitro); cited from earlier work.
A further series deals with DNA-PK (Homo sapiens, UniProt P78527). The following applies: unit inferred; read-out: Specificity for DNA-PK (IC50 determined in vitro); cited from earlier work.
A further series deals with mTORC1 (Homo sapiens, UniProt P42345). As to conditions: unit inferred; read-out: Specificity for mTORC1 (IC50 determined in vitro); cited from earlier work.
In series [3] the target is PI4P5KIα (Homo sapiens, UniProt Q99755). The following applies: first PI4P5KIα line; unit inferred; read-out: Specificity for PI4P5KIα (IC50 determined in vitro); cited from earlier work.
The target of another series is T1, PI5P4KIIβ (Homo sapiens, UniProt P78356).
T1 sequence (P78356 1-416): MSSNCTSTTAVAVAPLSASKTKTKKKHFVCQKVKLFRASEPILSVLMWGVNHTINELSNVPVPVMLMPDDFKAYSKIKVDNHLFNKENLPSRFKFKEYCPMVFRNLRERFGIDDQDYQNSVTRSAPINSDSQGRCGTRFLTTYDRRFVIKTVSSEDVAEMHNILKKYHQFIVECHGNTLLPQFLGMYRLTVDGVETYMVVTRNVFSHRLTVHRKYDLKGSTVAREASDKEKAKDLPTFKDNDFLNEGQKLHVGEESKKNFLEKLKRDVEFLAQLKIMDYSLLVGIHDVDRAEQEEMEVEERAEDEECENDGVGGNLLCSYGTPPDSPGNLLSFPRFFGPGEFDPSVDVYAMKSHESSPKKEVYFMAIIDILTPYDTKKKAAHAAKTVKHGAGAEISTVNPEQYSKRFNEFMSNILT
As to conditions: unit inferred; read-out: Specificity for PI5P4KIIβ (IC50 determined in vitro); cited from earlier work.

Setting [4] is: serum free AIM-V, anti TGFβ 3 μg/ml, SB431542 20 μM.

Chain of ATR (Q13535 whole entry): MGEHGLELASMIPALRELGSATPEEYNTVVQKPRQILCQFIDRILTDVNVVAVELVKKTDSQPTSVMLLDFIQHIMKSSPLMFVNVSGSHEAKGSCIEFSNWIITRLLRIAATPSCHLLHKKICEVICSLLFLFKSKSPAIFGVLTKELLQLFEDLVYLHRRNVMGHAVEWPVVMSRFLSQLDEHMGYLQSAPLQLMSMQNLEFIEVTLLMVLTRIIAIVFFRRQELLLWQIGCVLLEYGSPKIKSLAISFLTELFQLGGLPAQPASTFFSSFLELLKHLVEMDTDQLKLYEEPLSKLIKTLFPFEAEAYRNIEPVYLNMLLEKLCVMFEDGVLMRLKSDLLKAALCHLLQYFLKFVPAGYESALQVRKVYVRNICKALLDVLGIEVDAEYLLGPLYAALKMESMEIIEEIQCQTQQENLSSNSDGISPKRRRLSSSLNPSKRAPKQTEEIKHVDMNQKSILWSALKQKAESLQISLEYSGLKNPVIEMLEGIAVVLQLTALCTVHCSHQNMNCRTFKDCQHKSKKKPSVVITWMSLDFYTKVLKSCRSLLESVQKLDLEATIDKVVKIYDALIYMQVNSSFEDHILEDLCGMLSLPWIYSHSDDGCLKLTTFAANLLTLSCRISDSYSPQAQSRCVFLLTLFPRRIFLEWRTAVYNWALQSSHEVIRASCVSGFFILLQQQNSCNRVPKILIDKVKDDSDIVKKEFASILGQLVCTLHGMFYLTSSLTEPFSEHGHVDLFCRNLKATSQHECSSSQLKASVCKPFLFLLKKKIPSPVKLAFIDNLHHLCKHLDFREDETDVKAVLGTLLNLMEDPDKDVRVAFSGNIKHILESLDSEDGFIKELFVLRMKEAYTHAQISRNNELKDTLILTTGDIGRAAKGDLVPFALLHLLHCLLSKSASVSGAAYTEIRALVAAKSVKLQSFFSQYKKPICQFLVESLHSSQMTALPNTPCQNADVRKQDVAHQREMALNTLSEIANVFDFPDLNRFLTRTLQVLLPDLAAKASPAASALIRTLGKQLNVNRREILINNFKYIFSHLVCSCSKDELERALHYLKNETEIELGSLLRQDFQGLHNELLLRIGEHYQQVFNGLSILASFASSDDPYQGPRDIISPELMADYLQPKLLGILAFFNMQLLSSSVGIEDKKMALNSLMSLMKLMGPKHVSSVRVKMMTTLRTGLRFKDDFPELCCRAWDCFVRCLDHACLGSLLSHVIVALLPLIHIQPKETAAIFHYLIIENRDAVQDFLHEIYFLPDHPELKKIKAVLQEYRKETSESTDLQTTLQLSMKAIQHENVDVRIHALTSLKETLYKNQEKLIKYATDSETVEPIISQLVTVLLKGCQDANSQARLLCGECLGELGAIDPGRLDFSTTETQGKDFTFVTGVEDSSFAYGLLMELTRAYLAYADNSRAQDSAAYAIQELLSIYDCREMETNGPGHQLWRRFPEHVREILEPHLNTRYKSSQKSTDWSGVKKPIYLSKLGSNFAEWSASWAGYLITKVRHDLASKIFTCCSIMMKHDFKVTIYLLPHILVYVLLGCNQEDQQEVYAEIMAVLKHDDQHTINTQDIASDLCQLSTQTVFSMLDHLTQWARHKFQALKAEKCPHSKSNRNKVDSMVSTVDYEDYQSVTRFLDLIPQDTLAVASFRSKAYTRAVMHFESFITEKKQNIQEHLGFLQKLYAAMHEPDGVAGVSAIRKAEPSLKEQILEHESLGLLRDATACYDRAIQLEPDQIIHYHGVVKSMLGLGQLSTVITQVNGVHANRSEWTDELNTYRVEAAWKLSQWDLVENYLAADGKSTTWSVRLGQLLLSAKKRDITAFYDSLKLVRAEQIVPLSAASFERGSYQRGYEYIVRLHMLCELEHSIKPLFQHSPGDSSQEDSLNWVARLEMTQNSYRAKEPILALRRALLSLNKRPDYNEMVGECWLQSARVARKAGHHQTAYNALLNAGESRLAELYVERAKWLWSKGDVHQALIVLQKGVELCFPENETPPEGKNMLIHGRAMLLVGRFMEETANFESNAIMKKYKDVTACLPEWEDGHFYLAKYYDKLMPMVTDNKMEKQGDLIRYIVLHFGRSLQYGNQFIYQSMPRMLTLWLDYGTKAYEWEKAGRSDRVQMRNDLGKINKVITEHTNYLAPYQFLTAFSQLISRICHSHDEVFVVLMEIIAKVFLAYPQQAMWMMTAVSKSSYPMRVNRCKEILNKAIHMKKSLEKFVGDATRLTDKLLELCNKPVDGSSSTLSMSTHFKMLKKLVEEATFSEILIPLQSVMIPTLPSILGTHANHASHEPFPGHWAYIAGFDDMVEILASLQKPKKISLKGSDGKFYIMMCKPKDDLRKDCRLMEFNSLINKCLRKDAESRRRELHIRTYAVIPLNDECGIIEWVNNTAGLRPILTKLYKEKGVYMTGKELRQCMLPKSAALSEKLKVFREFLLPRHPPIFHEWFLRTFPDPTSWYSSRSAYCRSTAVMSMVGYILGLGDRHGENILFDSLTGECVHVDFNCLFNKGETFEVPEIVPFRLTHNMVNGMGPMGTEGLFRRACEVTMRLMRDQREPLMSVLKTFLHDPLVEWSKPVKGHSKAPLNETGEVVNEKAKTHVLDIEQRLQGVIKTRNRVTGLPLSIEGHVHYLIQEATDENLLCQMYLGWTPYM
Chain of ATR (Q8WXE1 whole entry partner): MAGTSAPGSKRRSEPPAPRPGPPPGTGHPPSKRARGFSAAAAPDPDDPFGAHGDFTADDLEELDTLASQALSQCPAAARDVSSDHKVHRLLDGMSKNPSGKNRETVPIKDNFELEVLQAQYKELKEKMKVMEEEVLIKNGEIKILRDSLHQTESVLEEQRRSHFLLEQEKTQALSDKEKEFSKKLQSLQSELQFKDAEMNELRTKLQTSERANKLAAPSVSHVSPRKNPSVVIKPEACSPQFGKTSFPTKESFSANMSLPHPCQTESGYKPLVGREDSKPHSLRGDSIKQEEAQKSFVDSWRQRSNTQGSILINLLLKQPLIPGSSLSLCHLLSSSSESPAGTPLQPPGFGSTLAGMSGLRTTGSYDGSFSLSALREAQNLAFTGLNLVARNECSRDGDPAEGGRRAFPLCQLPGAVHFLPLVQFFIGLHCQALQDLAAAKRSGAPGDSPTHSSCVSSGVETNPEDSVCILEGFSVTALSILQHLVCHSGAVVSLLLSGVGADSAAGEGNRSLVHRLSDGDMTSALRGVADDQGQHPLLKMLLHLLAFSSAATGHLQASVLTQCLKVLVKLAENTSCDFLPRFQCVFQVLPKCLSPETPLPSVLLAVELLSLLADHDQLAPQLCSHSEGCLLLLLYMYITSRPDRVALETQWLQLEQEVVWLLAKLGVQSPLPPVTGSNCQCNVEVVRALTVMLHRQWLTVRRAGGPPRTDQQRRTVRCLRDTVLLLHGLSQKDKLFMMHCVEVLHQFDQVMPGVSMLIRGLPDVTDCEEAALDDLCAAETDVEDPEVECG
Chain of PI4KIIIβ (Q9UBF8 whole entry): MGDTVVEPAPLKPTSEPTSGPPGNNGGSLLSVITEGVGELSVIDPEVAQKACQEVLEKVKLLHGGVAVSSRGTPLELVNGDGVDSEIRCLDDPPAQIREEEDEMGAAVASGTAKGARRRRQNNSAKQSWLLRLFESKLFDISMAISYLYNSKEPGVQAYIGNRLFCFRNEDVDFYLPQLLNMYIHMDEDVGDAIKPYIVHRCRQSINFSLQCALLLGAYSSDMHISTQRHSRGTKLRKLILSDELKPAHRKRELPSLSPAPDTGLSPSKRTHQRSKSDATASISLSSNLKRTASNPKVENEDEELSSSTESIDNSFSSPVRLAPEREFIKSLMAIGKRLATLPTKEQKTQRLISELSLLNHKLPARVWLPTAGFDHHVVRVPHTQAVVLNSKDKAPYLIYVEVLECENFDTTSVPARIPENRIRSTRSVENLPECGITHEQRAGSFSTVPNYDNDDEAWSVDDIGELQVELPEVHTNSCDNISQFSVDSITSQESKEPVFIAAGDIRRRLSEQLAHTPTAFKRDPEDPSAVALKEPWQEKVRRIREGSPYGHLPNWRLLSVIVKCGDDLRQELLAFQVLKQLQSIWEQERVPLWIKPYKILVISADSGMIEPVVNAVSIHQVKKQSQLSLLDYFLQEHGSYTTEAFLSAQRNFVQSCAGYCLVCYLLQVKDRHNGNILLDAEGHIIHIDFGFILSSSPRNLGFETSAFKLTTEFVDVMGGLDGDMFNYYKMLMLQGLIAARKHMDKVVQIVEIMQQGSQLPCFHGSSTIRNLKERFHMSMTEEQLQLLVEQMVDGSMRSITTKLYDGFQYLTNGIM

`O=c1[nH]c2ccccc2n1C1CCN(Cc2ccc(-c3nc4cc5nc[nH]c5cc4nc3-c3ccccc3)cc2)CC1` [Akti-1/2]: the results for the “effect on Foxp3 expression (in words)” value in series [1] and in series [1] (listed as Akti 1/2) were “enhanced Foxp3 expression” and “induces Foxp3 expression”, respectively.

With `CC(C)C[C@H](NC(=O)[C@H](Cc1ccccc1)C[C@@H](O)[C@H](Cc1ccccc1)NC(=O)OC(C)(C)C)C(=O)N[C@@H](Cc1ccccc1)C(N)=O` [L-685458], the “effect on Foxp3 expression (in words)” value in [1] is given as “None of these detectably enhanced the expression of Foxp3”.

In the case of `O=c1cc(N2CCNCC2)oc2c(-c3ccccc3)cccc12` [Ly303511, 2-piperazinyl-8-phenyl-4H-1-benzopyran-4-one], the “percentage of cells expressing Foxp3” value in [1] is reported as 6.6±3.0%.

On to `Oc1cccc(-c2nc(N3CCOCC3)c3oc4ncccc4c3n2)c1` [PI-103], for which the “increase in Foxp3 expressing cells over and above TCR deprivation alone” value in [1] (IC-87114 down to 0.01 μM) was more than 20%. Besides, the “effect on Foxp3 expression (in words)” value in series [1] is reported as “strongly induced Foxp3”. For the same molecule, the “Foxp3 expression in control cultures, TCR signal deprived cultures subtracted” value (“Foxp3 expression in control cultures” below) in series [1] is 35.1±3.8%. For the same molecule, the IC50 at PI3KC2α was approximately 1000 nM; on PI4KIIα, more than 100000 nM; on PI4KIIIα, more than 100000 nM; on ATR, 850 nM; on ATM it was 920 nM; in the series with PI4P5KIα [2], more than 100000 nM.

On to `Cc1ccc([N+](=O)[O-])cc1S(=O)(=O)N(C)/N=C/c1cnc2ccc(Br)cn12` [PIK75], for which the “toxicity in the Foxp3 induction assay” value in series [1] (over the duration of the assay) is given as “toxicity over the duration of our assay”.

For `COc1ccc2c(c1OC)N=C(NC(=O)c1cccnc1)N1CCN=C21` [PIK90], the “effect on Foxp3 expression at 0.1 μM” value in series [1] (0.1 μM) was “strongly induced Foxp3”. In addition, in series [1], the “Foxp3 expression in control cultures” value was 36.0±12.9%. Further, the IC50 is 47 nM on PI3KC2α; 64 nM on PI3KC2β; more than 100000 nM on PI4KIIα; 830 nM on PI4KIIIα; 3100 nM on PI4KIIIβ; 15000 nM at ATR. Also, the IC50 on ATM is 610 nM; on DNA-PK it was 13 nM; on mTORC1, 1050 nM; on PI4P5KIα [3], more than 100000 nM; with PI4P5KIα [2] it was more than 100000 nM; on PI5P4KIIβ, more than 100000 nM.

As to `O=C1NC(=O)/C(=C\c2ccc3nccnc3c2)S1` [SA-605240], in series [1] (listed as AS-605240), the “effect on Foxp3 expression (in words)” value is “affected Foxp3 only at concentrations far in excess of its IC50 for p110γ”.

As to `NC(=O)c1ccc(-c2nc(-c3ccc4c(c3)OCO4)c(-c3ccccn3)[nH]2)cc1` [SB431542], in series [1] (setting [4]), the “effect on Foxp3 induction by PI3K/mTOR inhibitors” value is reported as “had no effect” and the “reduction of Foxp3 induction by TGFβ” value was found to be 96%.

As for `COC[C@H]1OC(=O)c2coc3c2[C@@]1(C)C1=C(C3=O)[C@@H]2CCC(=O)[C@@]2(C)C[C@H]1OC(C)=O` [Wortmannin], the “percentage of cells expressing Foxp3” value in series [1] is on record as 17.3±5.3%.

For the molecule `CO[C@H]1C[C@@H]2CC[C@@H](C)[C@@](O)(O2)C(=O)C(=O)N2CCCC[C@H]2C(=O)O[C@H]([C@H](C)C[C@@H]2CC[C@@H](O)[C@H](OC)C2)CC(=O)[C@H](C)/C=C(\C)[C@@H](O)[C@@H](OC)C(=O)[C@H](C)C[C@H](C)/C=C/C=C/C=C/1C` [rapamycin], the “% Foxp3+ cells (nutrient deprivation experiment)” value in [1] (18 hour activated CD4 T cells) was determined as 25 % Foxp3^+. Moreover, in series [1], the “percentage of cells expressing Foxp3” value was 26.8±14.4% and the “Foxp3 expression in control cultures” value came to 28.6±9.0%.

Values taken from patent US9314485B2, “Use of PI3K M-TOR and AKT inhibitors to induce FOXP3 expression and generate regulatory T cells” (Medical Research Council, priority 2006, dated 2016).
